Results published in patent US20040242896A1, “Azole compounds as anti-fungal agents” (priority 2001, published 2004).
Converted amounts (≈) assume the structure as drawn. Read-outs that look alike come from different tables or passages of the source.

Legend:
[1] = system: Candida parapsilosis 22019 (QC); assay: MIC determination (NCCLS M27A), Candida parapsilosis 22019 (QC); format: cell-based
Candida krusei 6258 (QC) = assay: MIC determination (NCCLS M27A), Candida krusei 6258 (QC); format: cell-based
[2] = system: Paecilomyces variotti 22319 QC); assay: MIC determination (NCCLS M38P), Paecilomyces variotti 22319 (QC); format: cell-based
Candida albicans 1122 = assay: MIC determination (NCCLS M27A), Candida albicans 1122; format: cell-based
Candida albicans Y-01-19 = assay: MIC determination (NCCLS M27A), Candida albicans Y-01-19; format: cell-based
Candida albicans1162 = assay: MIC determination (NCCLS M27A), Candida albicans 1162; format: cell-based
Candida tropicalis 750 = assay: MIC determination (NCCLS M27A), Candida tropicalis 750; format: cell-based
Candida krusei 766.1 = assay: MIC determination (NCCLS M27A), Candida krusei 766.1; format: cell-based
Candida glabrata 90030 = assay: MIC determination (NCCLS M27A), Candida glabrata 90030; format: cell-based
Histoplasma capsulatum = assay: microbe, parasite or virus in culture; format: cell-based
[3] = system: Cryptococcus neoformans I; assay: MIC determination (NCCLS M27A), Cryptococcus neoformans I; format: cell-based
[4] = system: Cryptococcus neoformans M 106; assay: MIC determination (NCCLS M27A), Cryptococcus neoformans M 106; format: cell-based
[5] = system: Aspergillus fumigatus 1008; assay: MIC determination (NCCLS M38P), Aspergillus fumigatus 1008; format: cell-based
[6] = system: Aspergillus fumigatus Si-I; assay: MIC determination (NCCLS M38P), Aspergillus fumigatus Si-I; format: cell-based
[7] = system: isolates of Aspergillus species; conditions: background statement; cited from earlier work
[8] = biological target: lanosterol 14α-de-methylase; conditions: the target enzyme in the fungus, background statement; cited from earlier work
[9] = Candida albicans Y-01-19, RPMI 1640, MOPS pH 7
[10] = Candida albicans1162, RPMI 1640, MOPS pH 7
[11] = Candida krusei 766.1, RPMI 1640, MOPS pH 7
[12] = Cryptococcus neoformans M 106, RPMI 1640, MOPS pH 7
[13] = Aspergillus fumigatus 1008, RPMI 1640, MOPS pH 7
[14] = Aspergillus fumigatus Si-I, RPMI 1640, MOPS pH 7
[15] = RPMI 1640, MOPS pH 7, read-out: MIC
[16] = Pichia kudriavzevii, RPMI 1640, MOPS pH 7, read-out: MIC
[17] = Nakaseomyces glabratus, RPMI 1640, MOPS pH 7, read-out: MIC

SMILES | MIC ([1]; RPMI 1640, MOPS pH 7) | MIC (Candida krusei 6258 (QC); RPMI 1640, MOPS pH 7) | MIC ([2]; RPMI 1640, MOPS pH 7) | MIC (Candida albicans 1122; RPMI 1640, MOPS pH 7) | MIC (Candida albicans Y-01-19; [9]) | MIC (Candida albicans1162; [10]) | MIC (Candida tropicalis 750; RPMI 1640, MOPS pH 7) | MIC (Candida krusei 766.1; [11]) | MIC (Candida glabrata 90030; RPMI 1640, MOPS pH 7) | MIC (Histoplasma capsulatum; RPMI 1640, MOPS pH 7) | MIC ([3]; RPMI 1640, MOPS pH 7) | MIC [4, 12] | MIC [5, 13] | MIC [6, 14] | MIC [1, 15] | MIC (Candida krusei 6258 (QC); [16]) | MIC [2, 15] | MIC (Candida albicans 1122; [15]) | MIC (Candida tropicalis 750; [15]) | MIC (Candida glabrata 90030; [17]) | further results
C[C@@H]1[C@H](O)[C@@H](C)/C=C/C=C/C=C/C=C/C=C/C=C/C=C/[C@H](O[C@@H]2O[C@H](C)[C@@H](O)[C@H](N)[C@@H]2O)C[C@@H]2O[C@](O)(C[C@@H](O)C[C@@H](O)[C@H](O)CC[C@@H](O)C[C@@H](O)CC(=O)O[C@H]1C)C[C@H](O)[C@H]2C(=O)O [Amphotericin B] | 0.25 µg/mL (≈ 0.271 µM) | 0.25 µg/mL (≈ 0.271 µM) | 0.06 µg/mL (≈ 0.0649 µM) | 0.125 µg/mL (≈ 0.135 µM) | 0.125 µg/mL (≈ 0.135 µM) | 0.06 µg/mL (≈ 0.0649 µM) | 0.125 µg/mL (≈ 0.135 µM) | 0.25 µg/mL (≈ 0.271 µM) | 0.125 µg/mL (≈ 0.135 µM) | 0.25 µg/mL (≈ 0.271 µM) | 0.06 µg/mL (≈ 0.0649 µM) | 0.125 µg/mL (≈ 0.135 µM) | 0.125 µg/mL (≈ 0.135 µM) | 0.125 µg/mL (≈ 0.135 µM) | – | – | – | – | – | – | –
OC(Cn1cncn1)(Cn1cncn1)c1ccc(F)cc1F [Fluconazole] | – | – | – | – | – | – | – | – | – | – | – | – | – | – | 2 µg/mL (≈ 6.53 µM) | 32 µg/mL (≈ 104 µM) | 2 µg/mL (≈ 6.53 µM) | 0.5 µg/mL (≈ 1.63 µM) | 0.25 µg/mL (≈ 0.816 µM) | 64 µg/mL (≈ 209 µM) | MIC (Candida albicans Y-01-19; Y0119, Candida albicans Y-01-19, RPMI 1640, MOPS pH 7, read-out: MIC): 8 µg/mL (≈ 26.1 µM); MIC (Candida albicans1162; Candida, ALBICANS1162, pH 7): > 128 µg/mL; MIC (Candida krusei 766.1; Pichia kudriavzevii, 766.1, pH 7): 128 µg/mL (≈ 418 µM); MIC (Histoplasma capsulatum; pH 7): 2 µg/mL (≈ 6.53 µM); MIC [3, 15]: 0.5 µg/mL (≈ 1.63 µM); MIC ([4]; M106, Cryptococcus neoformans M 106, RPMI 1640, MOPS pH 7, read-out: MIC): 2 µg/mL (≈ 6.53 µM); MIC ([5]; Aspergillus fumigatus, 1008, pH 7): > 128 µg/mL; MIC ([6]; Aspergillus fumigatus, pH 7): > 128 µg/mL; minimum inhibitory concentration (MIC) values [7]: 400 µg/mL (≈ 1310 µM); IC50 [8]: 4.8 µM
CCC(C)n1ncn(-c2ccc(N3CCN(c4ccc(OCC5COC(Cn6cncn6)(c6ccc(Cl)cc6Cl)O5)cc4)CC3)cc2)c1=O (stereo not shown) [Itraconazole] | – | – | – | – | – | – | – | – | – | – | – | – | – | – | 0.06 µg/mL (≈ 0.085 µM) | 0.5 µg/mL (≈ 0.709 µM) | 0.03 µg/mL (≈ 0.0425 µM) | 0.03 µg/mL (≈ 0.0425 µM) | 0.03 µg/mL (≈ 0.0425 µM) | 2 µg/mL (≈ 2.83 µM) | MIC (Candida albicans Y-01-19; Candida albicans, Y0119, pH 7): 0.125 µg/mL (≈ 0.177 µM); MIC (Candida albicans1162; Candida albicans1162, RPMI 1640, MOPS pH 7, read-out: MIC): 32 µg/mL (≈ 45.3 µM); MIC (Candida krusei 766.1; Pichia kudriavzevii, Candida krusei 766.1, RPMI 1640, MOPS pH 7, read-out: MIC): 0.25 µg/mL (≈ 0.354 µM); MIC (Histoplasma capsulatum; pH 7): 0.25 µg/mL (≈ 0.354 µM); MIC [3, 15]: 0.016 µg/mL (≈ 0.0227 µM); MIC ([4]; Cryptococcus neoformans, M106, pH 7): 0.125 µg/mL (≈ 0.177 µM); MIC ([5]; Aspergillus fumigatus 1008, RPMI 1640, MOPS pH 7, read-out: MIC): 0.25 µg/mL (≈ 0.354 µM); MIC ([6]; Aspergillus fumigatus Si-I, RPMI 1640, MOPS pH 7, read-out: MIC): 0.25 µg/mL (≈ 0.354 µM)
C[C@@H](n1ncn(-c2ccc(OCc3ccc(Cl)cc3Cl)cc2)c1=S)[C@](O)(Cn1cncn1)c1ccc(F)cc1F [compound 1, 2-[(1R,2R)-2 (2,4-Difluorophenyl)-2-hydroxy-1-methyl-3-(1H-1,2,4-triazol-1-yl)propyl]-4-[4-(2,4-dichlorobenzyloxy)phenyl]-3-(2H, 4H)-1,2,4-thiotriazolone] | <0.125 µg/mL | <0.125 µg/mL | <0.125 µg/mL | <0.125 µg/mL | ≦0.125 μg/ml | ≧64 μg/ml | <0.125 µg/mL | 0.5 µg/mL (≈ 0.829 µM) | 32 µg/mL (≈ 53 µM) | 0.5 µg/mL (≈ 0.829 µM) | <0.03 µg/mL | <0.03 µg/mL | <0.125 µg/mL | <0.125 µg/mL | – | – | – | – | – | – | –
C[C@@H](n1ncn(-c2ccc(OCc3ccccc3)cc2)c1=S)[C@](O)(Cn1cncn1)c1ccc(F)cc1F [Compound No. 2, 2-[(1R,2R)-2 (2,4-Difluorophenyl)-2-hydroxy-1-methyl-3-(1H-1,2,4-triazol-1-yl)propyl]-4-(4-benzyloxyphenyl)-3-(2H, 4H)-1,2,4-thiotriazolone] | 0.002 µg/mL (≈ 0.00374 µM) | 0.125 µg/mL (≈ 0.234 µM) | 0.06 µg/mL (≈ 0.112 µM) | – | 0.03 µg/mL (≈ 0.0561 µM) | – | 0.002 µg/mL (≈ 0.00374 µM) | 0.125 µg/mL (≈ 0.234 µM) | 0.125 µg/mL (≈ 0.234 µM) | 0.03 µg/mL (≈ 0.0561 µM) | 0.00025 µg/mL (≈ 0.000468 µM) | 0.00025 µg/mL (≈ 0.000468 µM) | 0.125 µg/mL (≈ 0.234 µM) | 0.016 µg/mL (≈ 0.0299 µM) | – | – | – | – | – | – | –
